Values after ≈ are worked out from the molar mass of the structure shown. Active and inactive are the calls of the source. No cut-off for these calls is given here.
Experiments:
[1] = tested on: Staphylococcus aureus; assay: Antibacterial activity against multidrug-resistant Staphylococcus aureus CCARM 3167 at 64 ug/ml incubated for 24 hrs serial dilution method; type: functional, organism-based
[2] = tested on: Escherichia coli; assay: Antibacterial activity against Escherichia coli 1356 at 64 ug/ml incubated for 24 hrs serial dilution method; type: functional, organism-based
[3] = tested on: Staphylococcus aureus; assay: Antibacterial activity against Staphylococcus aureus KCTC 209 at 64 ug/ml incubated for 24 hrs serial dilution method; type: functional, organism-based
[4] = tested on: Staphylococcus aureus; assay: Antibacterial activity against multidrug-resistant Staphylococcus aureus CCARM 3506 at 64 ug/ml incubated for 24 hrs serial dilution method; type: functional, organism-based
[5] = tested on: Staphylococcus aureus; assay: Antibacterial activity against Staphylococcus aureus RN 4220 at 64 ug/ml incubated for 24 hrs serial dilution method; type: functional, organism-based
[6] = tested on: Staphylococcus aureus; assay: Antibacterial activity against quinolone-resistant Staphylococcus aureus CCARM 3505 at 64 ug/ml incubated for 24 hrs serial dilution method; type: functional, organism-based
[7] = tested on: Staphylococcus aureus; assay: Antibacterial activity against Staphylococcus aureus KCTC 503 at 64 ug/ml incubated for 24 hrs serial dilution method; type: functional, organism-based
[8] = tested on: Staphylococcus aureus; assay: Antibacterial activity against quinolone-resistant Staphylococcus aureus CCARM 3519 at 64 ug/ml incubated for 24 hrs serial dilution method; type: functional, organism-based
[9] = tested on: Staphylococcus aureus; assay: Potency index, ratio of MIC for norfloxacin to MIC for compound against quinolone-resistant Staphylococcus aureus CCARM 3505 incubated for 24 hrs serial dilution method; type: functional
[10] = tested on: Staphylococcus aureus; assay: Potency index, ratio of MIC for norfloxacin to MIC for compound against quinolone-resistant Staphylococcus aureus CCARM 3519 incubated for 24 hrs serial dilution method; type: functional
[11] = tested on: Staphylococcus aureus; assay: Antibacterial activity against multidrug-resistant Staphylococcus aureus CCARM 3167 incubated for 24 hrs serial dilution method; type: functional; conditions: CCARM 3167, 24 h
[12] = tested on: Staphylococcus aureus; assay: Potency index, ratio of MIC for norfloxacin to MIC for compound against multidrug-resistant Staphylococcus aureus CCARM 3167 incubated for 24 hrs serial dilution method; type: functional
[13] = tested on: Staphylococcus aureus; assay: Antibacterial activity against multidrug-resistant Staphylococcus aureus CCARM 3506 incubated for 24 hrs serial dilution method; type: functional; conditions: CCARM 3506, 24 h
[14] = tested on: Staphylococcus aureus; assay: Antibacterial activity against Staphylococcus aureus KCTC 209 incubated for 24 hrs serial dilution method; type: functional; conditions: KCTC 209, 24 h
[15] = tested on: Staphylococcus aureus; assay: Antibacterial activity against Staphylococcus aureus RN 4220 incubated for 24 hrs serial dilution method; type: functional; conditions: RN 4220, 24 h
[16] = tested on: Staphylococcus aureus; assay: Antibacterial activity against Staphylococcus aureus KCTC 503 incubated for 24 hrs serial dilution method; type: functional; conditions: KCTC 503, 24 h
[17] = tested on: Staphylococcus aureus; assay: Antibacterial activity against quinolone-resistant Staphylococcus aureus CCARM 3505 incubated for 24 hrs serial dilution method; type: functional; conditions: CCARM 3505, 24 h
[18] = tested on: Staphylococcus aureus; assay: Antibacterial activity against quinolone-resistant Staphylococcus aureus CCARM 3519 incubated for 24 hrs serial dilution method; type: functional; conditions: CCARM 3519, 24 h
[19] = tested on: Staphylococcus aureus; assay: Potency index, ratio of MIC for norfloxacin to MIC for compound against multidrug-resistant Staphylococcus aureus CCARM 3506 incubated for 24 hrs serial dilution method; type: functional
[20] = tested on: Escherichia coli; assay: Antibacterial activity against Escherichia coli 1356 incubated for 24 hrs serial dilution method; type: functional; conditions: Escherichia coli, 1356, 24 h

Row | SMILES | Activity [1] | Activity [2] | Activity [3] | Activity [4] | Activity [5] | Activity [6] | Activity [7] | Activity [8] | Ratio [9] | Ratio [10] | MIC [11] | Ratio [12] | MIC [13] | MIC [14] | MIC [15] | MIC [16] | MIC [17] | MIC [18] | Ratio [19] | MIC [20]
1 | Cc1nn(-c2ccccc2)c(Oc2ccc(Cl)cc2)c1C=O | inactive | inactive | inactive | inactive | inactive | inactive | inactive | inactive | – | – | – | – | – | – | – | – | – | – | – | –
2 | Cc1ccc(Oc2c(C=O)c(C)nn2-c2ccccc2)c(C)c1 | inactive | inactive | inactive | inactive | inactive | inactive | inactive | inactive | – | – | – | – | – | – | – | – | – | – | – | –
3 | Cc1nn(-c2ccccc2)c(Oc2ccccc2Cl)c1/C=C1\SC(=S)N([C@@H](Cc2ccccc2)C(=O)O)C1=O | – | – | – | – | – | – | – | – | 4 | 4 | 8 µg/mL (≈ 13.9 µM) | 2 | 8 µg/mL (≈ 13.9 µM) | > 64 µg/mL | 8 µg/mL (≈ 13.9 µM) | > 64 µg/mL | 8 µg/mL (≈ 13.9 µM) | 8 µg/mL (≈ 13.9 µM) | 2 | > 64 µg/mL
4 | Cc1nn(-c2ccccc2)c(Oc2ccc3ccccc3c2)c1C=O | inactive | inactive | inactive | inactive | inactive | inactive | inactive | inactive | – | – | – | – | – | – | – | – | – | – | – | –
5 | Cc1nn(-c2ccccc2)c(Oc2ccc(Br)cc2)c1/C=C1\SC(=S)N([C@@H](Cc2ccccc2)C(=O)O)C1=O | – | – | – | – | – | – | – | – | 4 | 4 | 2 µg/mL (≈ 3.22 µM) | 2 | 2 µg/mL (≈ 3.22 µM) | > 64 µg/mL | 2 µg/mL (≈ 3.22 µM) | > 64 µg/mL | 2 µg/mL (≈ 3.22 µM) | 2 µg/mL (≈ 3.22 µM) | 2 | > 64 µg/mL
6 | Cc1nn(-c2ccccc2)c(Oc2ccccc2)c1/C=C1\SC(=S)N([C@@H](Cc2ccccc2)C(=O)O)C1=O | – | – | – | – | – | – | – | – | 4 | 4 | 4 µg/mL (≈ 7.38 µM) | 2 | 4 µg/mL (≈ 7.38 µM) | > 64 µg/mL | 8 µg/mL (≈ 14.8 µM) | > 64 µg/mL | 8 µg/mL (≈ 14.8 µM) | 8 µg/mL (≈ 14.8 µM) | 2 | > 64 µg/mL
7 | Cc1ccc(Oc2c(C=O)c(C)nn2-c2ccccc2)cc1 | inactive | inactive | inactive | inactive | inactive | inactive | inactive | inactive | – | – | – | – | – | – | – | – | – | – | – | –
8 | Cc1nn(-c2ccccc2)c(Oc2ccc(F)cc2)c1/C=C1\SC(=S)N([C@@H](Cc2ccccc2)C(=O)O)C1=O | – | – | – | – | – | – | – | – | 4 | 4 | 4 µg/mL (≈ 7.15 µM) | 2 | 8 µg/mL (≈ 14.3 µM) | > 64 µg/mL | 8 µg/mL (≈ 14.3 µM) | > 64 µg/mL | 8 µg/mL (≈ 14.3 µM) | 8 µg/mL (≈ 14.3 µM) | 2 | > 64 µg/mL
9 | Cc1nn(-c2ccccc2)c(Oc2cccc(Cl)c2)c1/C=C1\SC(=S)N([C@@H](Cc2ccccc2)C(=O)O)C1=O | – | – | – | – | – | – | – | – | 4 | 4 | 4 µg/mL (≈ 6.94 µM) | 2 | 4 µg/mL (≈ 6.94 µM) | > 64 µg/mL | 4 µg/mL (≈ 6.94 µM) | > 64 µg/mL | 4 µg/mL (≈ 6.94 µM) | 8 µg/mL (≈ 13.9 µM) | 2 | > 64 µg/mL
10 | Cc1nn(-c2ccccc2)c(Oc2cccc(C(F)(F)F)c2)c1/C=C1\SC(=S)N([C@@H](Cc2ccccc2)C(=O)O)C1=O | – | – | – | – | – | – | – | – | 4 | 4 | 4 µg/mL (≈ 6.56 µM) | 2 | 4 µg/mL (≈ 6.56 µM) | > 64 µg/mL | 4 µg/mL (≈ 6.56 µM) | > 64 µg/mL | 4 µg/mL (≈ 6.56 µM) | 8 µg/mL (≈ 13.1 µM) | 2 | > 64 µg/mL
11 | Cc1ccc(Oc2c(/C=C3\SC(=S)N([C@@H](Cc4ccccc4)C(=O)O)C3=O)c(C)nn2-c2ccccc2)c(C)c1 | – | – | – | – | – | – | – | – | 4 | 4 | 2 µg/mL (≈ 3.51 µM) | 2 | 2 µg/mL (≈ 3.51 µM) | > 64 µg/mL | 2 µg/mL (≈ 3.51 µM) | > 64 µg/mL | 2 µg/mL (≈ 3.51 µM) | 2 µg/mL (≈ 3.51 µM) | 2 | > 64 µg/mL
12 | Cc1nn(-c2ccccc2)c(Oc2c(Cl)cccc2Cl)c1/C=C1\SC(=S)N([C@@H](Cc2ccccc2)C(=O)O)C1=O | – | – | – | – | – | – | – | – | 4 | 4 | 4 µg/mL (≈ 6.55 µM) | 2 | 8 µg/mL (≈ 13.1 µM) | > 64 µg/mL | 4 µg/mL (≈ 6.55 µM) | > 64 µg/mL | 8 µg/mL (≈ 13.1 µM) | 8 µg/mL (≈ 13.1 µM) | 2 | > 64 µg/mL
13 | Cc1nn(-c2ccccc2)c(Oc2ccc(Br)cc2)c1C=O | inactive | inactive | inactive | inactive | inactive | inactive | inactive | inactive | – | – | – | – | – | – | – | – | – | – | – | –
14 | Cc1nn(-c2ccccc2)c(Oc2ccc(F)cc2)c1C=O | inactive | inactive | inactive | inactive | inactive | inactive | inactive | inactive | – | – | – | – | – | – | – | – | – | – | – | –
15 | COc1ccc(Oc2c(/C=C3\SC(=S)N([C@@H](Cc4ccccc4)C(=O)O)C3=O)c(C)nn2-c2ccccc2)cc1 | – | – | – | – | – | – | – | – | 4 | 4 | 4 µg/mL (≈ 7 µM) | 2 | 4 µg/mL (≈ 7 µM) | > 64 µg/mL | 8 µg/mL (≈ 14 µM) | > 64 µg/mL | 8 µg/mL (≈ 14 µM) | 8 µg/mL (≈ 14 µM) | 2 | > 64 µg/mL
16 | Cc1ccc(Oc2c(/C=C3\SC(=S)N([C@@H](Cc4ccccc4)C(=O)O)C3=O)c(C)nn2-c2ccccc2)cc1 | – | – | – | – | – | – | – | – | 4 | 4 | 4 µg/mL (≈ 7.2 µM) | 2 | 8 µg/mL (≈ 14.4 µM) | > 64 µg/mL | 4 µg/mL (≈ 7.2 µM) | > 64 µg/mL | 4 µg/mL (≈ 7.2 µM) | 4 µg/mL (≈ 7.2 µM) | 2 | > 64 µg/mL
17 | Cc1cccc(Oc2c(C=O)c(C)nn2-c2ccccc2)c1 | inactive | inactive | inactive | inactive | inactive | inactive | inactive | inactive | – | – | – | – | – | – | – | – | – | – | – | –
18 | Cc1nn(-c2ccccc2)c(Oc2ccc(Cl)cc2)c1/C=C1\SC(=S)N([C@@H](Cc2ccccc2)C(=O)O)C1=O | – | – | – | – | – | – | – | – | 4 | 4 | 2 µg/mL (≈ 3.47 µM) | 2 | 4 µg/mL (≈ 6.94 µM) | > 64 µg/mL | 4 µg/mL (≈ 6.94 µM) | > 64 µg/mL | 4 µg/mL (≈ 6.94 µM) | 4 µg/mL (≈ 6.94 µM) | 2 | > 64 µg/mL
19 | Cc1ccccc1Oc1c(/C=C2\SC(=S)N([C@@H](Cc3ccccc3)C(=O)O)C2=O)c(C)nn1-c1ccccc1 | – | – | – | – | – | – | – | – | 4 | 4 | 4 µg/mL (≈ 7.2 µM) | 2 | 8 µg/mL (≈ 14.4 µM) | > 64 µg/mL | 4 µg/mL (≈ 7.2 µM) | > 64 µg/mL | 8 µg/mL (≈ 14.4 µM) | 8 µg/mL (≈ 14.4 µM) | 2 | > 64 µg/mL
20 | Cc1nn(-c2ccccc2)c(Oc2ccc3ccccc3c2)c1/C=C1\SC(=S)N([C@@H](Cc2ccccc2)C(=O)O)C1=O | – | – | – | – | – | – | – | – | 4 | 4 | 2 µg/mL (≈ 3.38 µM) | 2 | 2 µg/mL (≈ 3.38 µM) | > 64 µg/mL | 2 µg/mL (≈ 3.38 µM) | > 64 µg/mL | 2 µg/mL (≈ 3.38 µM) | 2 µg/mL (≈ 3.38 µM) | 2 | > 64 µg/mL
21 | Cc1cccc(Oc2c(/C=C3\SC(=S)N([C@@H](Cc4ccccc4)C(=O)O)C3=O)c(C)nn2-c2ccccc2)c1 | – | – | – | – | – | – | – | – | 4 | 4 | 4 µg/mL (≈ 7.2 µM) | 2 | 4 µg/mL (≈ 7.2 µM) | > 64 µg/mL | 4 µg/mL (≈ 7.2 µM) | > 64 µg/mL | 4 µg/mL (≈ 7.2 µM) | 8 µg/mL (≈ 14.4 µM) | 2 | > 64 µg/mL
22 | COc1ccccc1Oc1c(/C=C2\SC(=S)N([C@@H](Cc3ccccc3)C(=O)O)C2=O)c(C)nn1-c1ccccc1 | – | – | – | – | – | – | – | – | 4 | 4 | 8 µg/mL (≈ 14 µM) | 2 | 8 µg/mL (≈ 14 µM) | > 64 µg/mL | 16 µg/mL (≈ 28 µM) | > 64 µg/mL | 8 µg/mL (≈ 14 µM) | 8 µg/mL (≈ 14 µM) | 2 | > 64 µg/mL

From ChEMBL document CHEMBL2203015, “Synthesis and biological evaluation of 5-aryloxypyrazole derivatives bearing a rhodanine-3-aromatic acid as potential antimicrobial agents” (Bioorg Med Chem Lett, 2012)
